Like-named read-outs stand apart in the source and are kept apart here.
Key:
[1] = Intranasal administration of [3H]-AZT or [3H]-saquinavir with AT1002, uptake into blood plasma
Procedure: Blood samples (250 μl) were drawn into heparinized syringes at 10 or 15 min into polypropylene tubes, centrifuged (13,000 rpm for 10 min) immediately and plasma was obtained. Scintillation cocktail was added and samples were analyzed for radioactivity by Beckman Coulter LS 6500 multi-purpose Scintillation counter.
In a volume of 20 μl, 120 μCi/kg of [^3H]-AZT was administered to FVB mice of 20-25 g each. Other FVB mice received the same amount of AZT administered in the presence of AT1002(2 mg/kg). Blood samples were taken at 10 or 15 minutes.
[hu 3H]-Saquinavir (120 μCi/kg) was administered in a 20 μl volume intranasally to FVB mice in the absence or presence of AT1002 (5 mg/kg).

[2] = Intra-nasal administration of salmon calcitonin (sCT) with or without AT1002, plasma sCT by LC-MS; assay type: in vivo, Sprague-Dawley rats; conditions: for Tmax: 15 mg/kg
Procedure: Jugular cannulated Sprague-Dawley rats randomly received formulations of salmon calcitonin. The formulations administered intra-nasally to rats were dextrose solution of sCT (15 mg/kg) with or without various doses of AT1002 (2, 5, and 10 mg/kg). Doses were then slowly administered intra-nasally with a volume dose of 400 μl kg rat. Blood samples were drawn via the jugular cannula at each time point, and were deproteinized by the addition of acetonitrile. The concentration of sCT in the plasma was determined by LC-MS.

[3] = Intranasal administration of [14C] PEG4000 or [14C] inulin with/without AT1002, plasma concentration; assay type: in vivo, Sprague-Dawley rats; conditions: inulin with AT1002 10 mg/kg, p<0.05
From the text: Male Sprague-Dawley rats cannulated in the jugular vein were randomly assigned to receive radiolabelled paracellular markers, [^14C] PEG4000 or [^14C] inulin, with/without AT1002, for each intranasal study.

[4] = biological target: T1, protease activated receptor-2 (PAR-2) receptor (Mus musculus, UniProt P55086); conditions: intracolonic infusion of a 5 μg dose; cited from earlier work
T1 construct: Intracolonic infusion of a 5 μg dose of the PAR-2 agonist, SLIGRL
T1 sequence (P55086 26-399): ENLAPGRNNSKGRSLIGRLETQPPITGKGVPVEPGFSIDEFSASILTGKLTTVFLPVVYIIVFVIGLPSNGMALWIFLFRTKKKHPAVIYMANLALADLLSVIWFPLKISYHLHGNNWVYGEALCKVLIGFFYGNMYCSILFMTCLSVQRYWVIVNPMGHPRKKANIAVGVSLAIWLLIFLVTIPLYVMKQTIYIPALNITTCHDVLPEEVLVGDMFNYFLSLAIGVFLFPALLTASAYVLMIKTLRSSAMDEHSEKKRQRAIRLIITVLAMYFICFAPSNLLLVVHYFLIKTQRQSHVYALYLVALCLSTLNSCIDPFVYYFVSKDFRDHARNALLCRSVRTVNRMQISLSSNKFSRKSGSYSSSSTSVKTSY

in vitro = conditions: human, Caco-2
Procedure: Caco-2 cells, a human colon adenocarcinoma cell line, were grown as monolayers for 21 days in Dulbecco's Modified Eagle's medium (1X) containing 10% fetal bovine serum, 1% non-essential amino acid solution, 1% penicillin-streptomycin and 2% glutamine at 37° C. in an atmosphere of 5% CO2 and 90% relative humidity. Caco-2 cells from passage numbers of 51 to 52 were seeded on permeable polycarbonate inserts (1 cm^2, 0.4 μm pore size) in 12 Transwell plates at a density of 80,000 cells/cm^2. The inserts were fed with media every other day until they were used for experiments 21 days after the initial seeding. The integrity of the cell monolayers was evaluated by measuring the transepithelial electrical resistance (TEER) values before the study using a Millicell®-ERS meter (Millipore Corp., Bedford, Mass.) with chopstick electrodes. […] The cell monolayers were washed twice with PBS prior to the transport experiments. After the wash, the plates were incubated for 30 min at 37° C., and the integrity of the cell monolayers was evaluated by measurement of TEER. The cell inserts were used in transport experiments when the TEER values reached >300 Ωcm^2.
The insert was moved to a well containing fresh PBS every 10 min for 40 min.
Papp was calculated according to the following equation: […]
The percent enhancement ratio, ER(%), for the Papp was calculated from the formula, […]

Caco-2 cell monolayers = conditions: ZOT 0.22 to 0.89×10^−10 mol/ml, across Caco-2 cell monolayers; cited from earlier work
[5] = sCT 15 mg/kg intra-nasal with 10 mg/kg of AT1002, p<0.05

Molecule: H-FCIGRL-OH [AT1002, H-FCIGRL-OH]
- increase of AZT levels in plasma ([1]; [3H]-AZT 120 μCi/kg intranasal, AT1002 2 mg/kg co-administered, blood at 10 or 15 min, vs AZT alone, p<0.05): about 33%
- increase of saquinavir levels in plasma ([1]; [3H]-saquinavir 120 μCi/kg intranasal, in presence of AT1002 5 mg/kg vs absence): about 51%
- increase of plasma concentration of sCT vs sCT control ([2]; at 20 min, sCT 15 mg/kg intra-nasal with 10 mg/kg of AT1002, p<0.05): 1.99 fold
- increase in sCT AUC0-90min to sCT control [2, 5]: 1.66 fold
- increase in sCT Cmax to sCT control [2, 5]: 1.67 fold
- inulin AUC0-360min, increase over control [3]: 292%
- inulin Cmax, increase over control [3]: 315%

Molecule: SLIGRL
- increase in the paracellular permeability of [51Cr]-EDTA [4]: 2 fold

Molecule: OC[C@@H](O)[C@@H](O)[C@H](O)[C@H](O)CO [Mannitol]
- Papp (in vitro): 0.686 ± 0.057 ×10⁻⁶ cm/s

Molecule: CC(C)C[C@H](NC(=O)[C@H](CCCCN)NC(=O)CNC(=O)[C@H](CC(C)C)NC(=O)[C@@H](NC(=O)[C@@H]1CSSC[C@H](N)C(=O)N[C@@H](CO)C(=O)N[C@@H](CC(N)=O)C(=O)N[C@@H](CC(C)C)C(=O)N[C@@H](CO)C(=O)N[C@@H]([C@@H](C)O)C(=O)N1)C(C)C)C(=O)N[C@@H](CO)C(=O)N[C@@H](CCC(N)=O)C(=O)N[C@@H](CCC(=O)O)C(=O)N[C@@H](CC(C)C)C(=O)N[C@@H](Cc1c[nH]cn1)C(=O)N[C@@H](CCCCN)C(=O)N[C@@H](CC(C)C)C(=O)N[C@@H](CCC(N)=O)C(=O)N[C@H](C(=O)N[C@@H](Cc1ccc(O)cc1)C(=O)N1CCC[C@H]1C(=O)N[C@@H](CCCNC(=N)N)C(=O)N[C@H](C(=O)N[C@@H](CC(N)=O)C(=O)N[C@H](C(=O)NCC(=O)N[C@@H](CO)C(=O)NCC(=O)N[C@H](C(=O)N1CCC[C@H]1C(N)=O)[C@@H](C)O)[C@@H](C)O)[C@@H](C)O)[C@@H](C)O [sCT only, Salmon calcitonin]
- Tmax ([2]; Sprague-Dawley, rat, plasma, inhaled or intranasal, sCT 15 mg/kg intra-nasal alone (control), mean ± SEM, read-out: sCT Tmax (converted)): 32.5 min
- Tmax ([2]; Sprague-Dawley, rat, plasma, inhaled or intranasal, sCT 15 mg/kg intra-nasal, sCT only (FIG. 7), read-out: Tmax of average plasma concentration profile of sCT (converted)): 30 min
- Cmax ([2]; Sprague-Dawley, rat, plasma, inhaled or intranasal, sCT 15 mg/kg intra-nasal alone (control), mean ± SEM): 1230 ± 250 ng/mL
- AUC(0-t) ([2]; Sprague-Dawley, rat, plasma, inhaled or intranasal, sCT 15 mg/kg intra-nasal alone (control), mean ± SEM, n=3-5, read-out: sCT AUC0-90 min (converted)): 997 ng·h/mL

Molecule: ZOT: 44.8 kDa protein (399 amino acids) of Vibrio cholerae that reversibly opens tight junctions
- enhanced transport of agents of varying molecular weights or low bioavailability (Caco-2 cell monolayers): up to 30 fold

— US20090252672A1, “NASAL DELIVERY OF THERAPEUTIC AGENTS USING TIGHT JUNCTION AGONISTS” (priority 2006, published 2009)
